According to the supplement of paper PMC10307832:

How the values were obtained:
Test in all cases: relative viability (nuclei count vs DMSO), 5 days (fraction); higher = more cells survive
GSK-J4 + Trametinib = compound: CCOC(=O)CCNc1cc(N2CCc3ccccc3CC2)nc(-c2ccccn2)n1 [GSK-J4] + CC(=O)Nc1cccc(-n2c(=O)n(C3CC3)c(=O)c3c(Nc4ccc(I)cc4F)n(C)c(=O)c(C)c32)c1 [Trametinib] (partner 0.02 µM)
In short: (§1)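 Relative viability is defined as nuclei in treated wells over nuclei in vehicle wells. Duplicate plates were run and medians reported. Lung cancer cell lines in 1536-well plates were dosed by pin tool one day after seeding, with one drug or with a fixed anchor-drug dose plus five library-drug doses (not always all listed) in √10 steps, and nuclei were counted after 5 days.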

GSK-J4 + Palbociclib = compound: CCOC(=O)CCNc1cc(N2CCc3ccccc3CC2)nc(-c2ccccn2)n1 [GSK-J4] + CC(=O)c1c(C)c2cnc(Nc3ccc(N4CCNCC4)cn3)nc2n(C2CCCC2)c1=O [Palbociclib] (partner 0.5 µM)
In short: as §1

GSK-J4 + Navitoclax = compound: CCOC(=O)CCNc1cc(N2CCc3ccccc3CC2)nc(-c2ccccn2)n1 [GSK-J4] + CC1(C)CCC(c2ccc(Cl)cc2)=C(CN2CCN(c3ccc(C(=O)NS(=O)(=O)c4ccc(N[C@H](CCN5CCOCC5)CSc5ccccc5)c(S(=O)(=O)C(F)(F)F)c4)cc3)CC2)C1 [Navitoclax] (partner 0.5 µM)
In short: as §1

GSK-J4 + Linsitinib = compound: CCOC(=O)CCNc1cc(N2CCc3ccccc3CC2)nc(-c2ccccn2)n1 [GSK-J4] + C[C@]1(O)C[C@@H](c2nc(-c3ccc4ccc(-c5ccccc5)nc4c3)c3c(N)nccn32)C1 [Linsitinib] (partner 1 µM)
In short: as §1

| Cell Line | relative viability (GSK-J4 + Trametinib; first compound 0.5 µM) | relative viability (GSK-J4 + Trametinib; first compound 1.581 µM) | relative viability (GSK-J4 + Trametinib; first compound 5 µM) | relative viability (GSK-J4 + Trametinib; first compound 15.81 µM) | relative viability (GSK-J4 + Trametinib; first compound 50 µM) | relative viability (GSK-J4 + Palbociclib; first compound 0.5 µM) | relative viability (GSK-J4 + Palbociclib; first compound 1.581 µM) | relative viability (GSK-J4 + Palbociclib; first compound 5 µM) | relative viability (GSK-J4 + Palbociclib; first compound 15.81 µM) | relative viability (GSK-J4 + Palbociclib; first compound 50 µM) | relative viability (GSK-J4 + Navitoclax; first compound 0.5 µM) | relative viability (GSK-J4 + Navitoclax; first compound 1.581 µM) | relative viability (GSK-J4 + Navitoclax; first compound 5 µM) | relative viability (GSK-J4 + Navitoclax; first compound 15.81 µM) | relative viability (GSK-J4 + Navitoclax; first compound 50 µM) | relative viability (GSK-J4 + Linsitinib; first compound 0.5 µM) | relative viability (GSK-J4 + Linsitinib; first compound 1.581 µM) | relative viability (GSK-J4 + Linsitinib; first compound 5 µM) | relative viability (GSK-J4 + Linsitinib; first compound 15.81 µM) | relative viability (GSK-J4 + Linsitinib; first compound 50 µM) |
| --- | --- | --- | --- | --- | --- | --- | --- | --- | --- | --- | --- | --- | --- | --- | --- | --- | --- | --- | --- | --- |
| 201T | 0.719 | 0.615 | 0.711 | 0.735 | 0.69 | 0.359 | 0.358 | 0.361 | 0.326 | 0.352 | 1.19 | 1.28 | 1.25 | 1.21 | 1.16 | 1.02 | 1.08 | 1.1 | 1.04 | 1.06 |
| A549 |  |  |  |  |  |  |  |  |  |  | 1.08 | 1.15 | 1.24 | 1.24 | 1.2 | 0.559 |  | 0.733 | 0.442 | 0.578 |
| A-427 | 0.702 | 0.567 |  | 0.559 | 0.552 | 0.507 | 0.439 |  | 0.511 | 0.443 | 0.951 |  | 0.925 | 0.906 | 0.782 | 1.07 |  | 1.14 | 1.11 | 0.94 |
| ABC-1 |  |  |  |  |  | 0.599 | 0.589 | 0.605 | 0.691 | 0.432 |  |  |  |  |  | 0.788 | 0.632 | 1.07 | 0.802 | 0.378 |
| BEN | 1.1 | 0.883 | 0.88 | 0.896 | 0.917 | 0.476 | 0.314 | 0.465 | 0.419 | 0.457 | 0.0769 | 0.0597 |  | 0.0496 | 0.042 | 0.91 | 0.706 |  | 0.925 | 0.823 |
| CAL-12T | 0.337 | 0.314 | 0.424 | 0.288 | 0.254 | 0.46 | 0.342 | 0.442 | 0.482 | 0.493 | 1.2 | 1.17 | 1.47 | 1.16 | 1.21 | 0.856 | 0.776 | 0.776 | 0.742 | 0.648 |
| COR-L23 | 0.461 | 0.576 |  | 0.544 | 0.429 | 0.274 | 0.233 |  | 0.251 | 0.258 | 0.886 | 1.02 |  | 0.929 | 0.956 | 0.909 | 0.933 |  | 0.868 | 0.807 |
| COR-L 105 | 0.467 |  | 0.46 | 0.458 | 0.451 | 0.428 |  | 0.342 | 0.415 | 0.396 | 0.692 | 0.551 | 0.647 | 0.88 | 0.679 | 0.985 | 0.572 | 0.91 | 1.06 | 0.99 |
| Calu-6 |  |  |  |  |  |  |  |  |  |  | 0.86 | 0.74 | 0.779 | 0.874 | 0.716 | 0.868 | 0.924 | 0.719 | 0.927 | 0.869 |
| ChaGo-K-1 | 0.934 |  | 0.939 | 0.841 | 0.808 | 0.934 |  | 0.967 | 0.889 | 0.845 | 1.09 |  | 1.02 | 1.03 | 0.895 |  |  |  |  |  |
| EBC-1 |  |  |  |  |  |  |  |  |  |  | 0.367 | 0.4 | 0.356 | 0.4 | 0.264 | 0.937 | 0.758 | 0.789 | 0.795 | 0.709 |
| EKVX | 0.337 |  | 0.515 | 0.307 | 0.21 | 0.352 |  | 0.365 | 0.352 | 0.344 | 0.871 | 0.874 | 1.12 | 0.834 | 0.951 | 0.928 | 0.832 | 1.16 | 0.836 | 0.902 |
| EMC-BAC-2 | 0.901 | 0.819 |  | 0.777 | 0.831 | 0.505 | 0.474 |  | 0.465 | 0.471 | 1.17 | 1.07 | 1.24 | 1.04 | 1.13 | 0.781 | 0.728 | 0.83 | 0.715 | 0.794 |
| EPLC-272H | 0.328 | 0.251 | 0.325 | 0.272 | 0.232 | 0.342 | 0.327 | 0.371 | 0.309 | 0.33 | 1.14 |  | 1.21 | 0.979 | 1.02 | 1.16 |  | 1.31 | 1.02 | 1.11 |
| H3255 | 0.656 |  | 0.53 | 0.48 | 0.541 | 0.325 | 0.299 | 0.257 | 0.279 | 0.284 | 0.474 | 0.494 | 0.543 | 0.368 | 0.444 | 0.902 | 0.952 | 0.838 | 0.84 | 0.707 |
| HARA | 0.6 | 0.799 |  | 0.516 | 0.471 | 0.242 | 0.247 | 0.23 | 0.234 | 0.3 | 1.16 | 0.827 |  | 1.15 | 0.916 | 0.891 | 0.608 |  | 0.797 | 0.699 |
| HCC-15 | 0.376 | 0.377 | 0.413 | 0.298 | 0.272 | 0.712 | 0.528 | 0.701 | 0.694 | 0.488 | 0.692 | 0.701 | 0.779 | 0.566 | 0.444 | 0.845 | 0.793 | 0.892 | 0.785 | 0.629 |
| HCC-44 | 1.1 | 0.91 | 1.06 | 1.04 | 1.03 | 0.933 | 0.916 | 0.989 | 0.979 | 1.03 | 0.973 | 0.91 | 1.08 | 0.817 | 0.898 | 0.704 | 0.625 | 0.709 | 0.735 | 0.646 |
| HCC-78 | 0.765 | 0.706 | 1.15 | 0.559 | 1.02 | 0.498 |  | 0.48 | 0.435 | 0.486 | 0.779 | 0.681 | 1.01 |  | 0.689 | 0.44 | 0.499 | 0.701 |  | 0.484 |
